Test results reported in patent publication US20080095720A1, “Skin Benefit Compositions with a Vanilloid Receptor Antagonist” (CONOPCO, INC., D/B/A UNILEVER, priority 2006, published 2008).

Molecular target: T1, vanilloid receptor TRP-V1, VR-1 (Homo sapiens, UniProt Q8NER1)
T1 construct: endogenous in cells; host or cells: HaCaT keratinocytes
Test: Interleukin-1α production in HaCaT keratinocytes treated with capsaicin with or without capsazepine
Type: cell-based
Method: Keratinocyte cell lines (HaCaT) were treated with about 1 μM capsaicin (an agonist of vanilloid receptor TRP-V1, VR-1). […] Antagonists of TRP-V1 are thereby expected to be a route to reduce inflammation in the skin when the same is subjected to an irritant.

T1 sequence (Q8NER1 whole entry): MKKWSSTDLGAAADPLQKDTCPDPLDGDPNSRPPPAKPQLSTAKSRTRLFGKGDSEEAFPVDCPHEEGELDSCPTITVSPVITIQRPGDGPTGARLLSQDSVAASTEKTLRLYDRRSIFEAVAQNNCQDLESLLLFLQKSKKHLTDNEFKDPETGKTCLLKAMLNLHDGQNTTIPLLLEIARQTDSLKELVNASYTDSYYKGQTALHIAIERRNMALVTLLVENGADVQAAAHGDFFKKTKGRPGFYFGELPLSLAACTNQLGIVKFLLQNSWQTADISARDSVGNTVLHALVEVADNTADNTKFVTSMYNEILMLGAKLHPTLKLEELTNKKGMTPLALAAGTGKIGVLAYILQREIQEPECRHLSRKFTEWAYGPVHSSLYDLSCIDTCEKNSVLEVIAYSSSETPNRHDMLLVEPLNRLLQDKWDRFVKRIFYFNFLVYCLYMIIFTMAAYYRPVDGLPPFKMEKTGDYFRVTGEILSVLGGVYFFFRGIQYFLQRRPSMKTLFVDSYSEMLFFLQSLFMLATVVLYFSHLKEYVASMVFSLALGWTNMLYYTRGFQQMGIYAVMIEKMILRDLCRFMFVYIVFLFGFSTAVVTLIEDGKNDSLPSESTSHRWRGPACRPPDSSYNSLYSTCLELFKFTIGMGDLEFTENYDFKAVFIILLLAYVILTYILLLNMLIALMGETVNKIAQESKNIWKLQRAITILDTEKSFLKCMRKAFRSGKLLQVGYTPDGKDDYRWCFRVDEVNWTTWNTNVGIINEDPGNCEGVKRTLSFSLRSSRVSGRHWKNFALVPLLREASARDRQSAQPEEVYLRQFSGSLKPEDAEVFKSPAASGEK

Row | production of interleukin-1α (HaCaT keratinocyte cell lines, about 1 μM capsaicin, p<0.001) | interleukin-1α increase in response to capsaicin (HaCaT keratinocytes, capsaicin (1 μM) in the presence of about 3 μM capsazepine) | interleukin-1α levels (HaCaT keratinocytes, capsazepine alone) | SMILES
1 | significant increase | – | – | COc1cc(CNC(=O)CCCC/C=C/C(C)C)ccc1O [capsaicin]
2 | – | blocked the interleukin-1α increase | no effect | Oc1cc2c(cc1O)CN(C(=S)NCCc1ccc(Cl)cc1)CCC2 [capsazepine]
